Data taken from PMC9896555, “Cyclic Acetals as Novel Long-Lasting Mosquito Repellents” (Journal of Agricultural and Food Chemistry, 2023).
Values joined by “and” are separate entries in the source; they are usually repeats but may differ in a detail not shown here. Equal entries are not always repeated. “Also recorded” adds a separate entry of the source. Where two headings read alike, the source gives them in different places.

How the values were obtained:
[1] = system: RAW 264.7; test: Immunogenicity on murine macrophages (nitric oxide release); type: cell-based; details: RAW264.7, 82 μg/mL, 6 h
Method: Cells were cultured in DMEM, with 10% FBS, 1% L-glutamine (2 mM), and 1% penicillin–streptomycin 100 U/mL at 37 °C in an atmosphere containing 5% CO2. RAW264.7 were seeded (1 × 10^5 cells/well) and exposed to five derivatives or Icaridin, at 82 μg/mL or to LPS (1 μg/mL) as a positive control, for 3 and 6 h. After that, nitric oxide release was determined in the culture media as previously described.[32] Experiments were performed in triplicate.

[2] = system: Caco-2 monolayer; test: Transwell permeation test; type: in vitro ADME; details: 82 μg/mL apical, 3 h
Method: To evaluate the possibility of absorption after topical application, we tested the permeation through a Caco-2 monolayer for those compounds best performing in terms of protection time and cytotoxicity. The colorectal adenocarcinoma cell line Caco-2 was purchased from ATCC and cultured in DMEM with 20% FBS, L-glutamine (2 mM), and 1% penicillin–streptomycin 100 U/mL (Thermo Fisher Scientific, Rodano, Milan, Italy) in 5% CO2 at 37 °C.
For the permeation studies, Caco-2 cells, a model of epithelial cells, were seeded into 12-well PET Transwell plates (1.13 cm^2 growth surface area and pore size 0.4 μm, Greiner Bio-One, Milan, Italy) at a density of 2 × 10^5 cells/cm^2 and grown for 21 days to form a confluent monolayer. The integrity of the cellular barrier was then assessed using Lucifer Yellow (LY) permeability test, before the experiments.[33]
After washing, the monolayers were preincubated for 20 min at 37 °C with 0.5 and 1.5 mL of the incubation medium, HBSS/HEPES 25 mM in the apical and basolateral sides, respectively. […] At the end of the experiment, the layer integrity was re-evaluated. […]
One hundred microliters of the collected media was extracted in 100 μL of heptane by vortexing the vial for 2 min; 70 μL of this solution was recovered; and 1 μL was injected in a 7820 GC system-5977B MSD system and analyzed under the same conditions reported in paragraph 2.2. […]

[3] = system: HaCaT cells; test: Cytotoxicity on human keratinocytes (MTS); type: cell-based; details: 82 μg/mL, 24 h
Method: HaCaT cells were cultured in 5% CO2 at 37 °C in Dulbecco’s modified Eagle’s medium (DMEM), supplemented with 10% fetal bovine serum (FBS), 1% L-glutamine ([…]), and 1% penicillin–streptomycin (Thermo Fisher Scientific, Rodano, Milan, Italy). […] Experiments were performed in triplicate.

[4] = system: Aedes albopictus; test: Protection time at 0.17 mg/cm2, human-bait technique; type: in vivo; details: for pest or weed control at 0.17 mg/cm2, 0.17 mg/cm2: Aedes albopictus, topical, read-out: Protection time PE%
Summary of the method: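 Human-bait test with 100 μL of 5% ethanol solution applied to skin (0.17 mg/cm2); ethanol-treated hand as negative control. Repellency checked hourly up to 8 h on up to 8 volunteers; protection time taken as mean time with >95% protection, complete protection time estimated by Kaplan–Meier.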

[5] = system: Aedes albopictus; test: Effective dose / protection efficacy, human-bait technique; type: in vivo

## OCC1COC2(CCCCCCC2)O1 (stereo not shown) [12a]
[1]
  immunogenicity (nitric oxide release / nitrite production), in words: did not exhibit immunogenicity; also recorded: indistinguishable from the negative control
[2]
  permeability value lower compared to Icaridin: 44%
[3]
  survival of keratocytes: > 88% and 100%
[4]; 0.17mg/cm2, 1 h
  pest or weed control at 0.17 mg/cm2, 0.17 mg/cm2: 100%
[4]; 0.17mg/cm2, 2 h
  pest or weed control at 0.17 mg/cm2, 0.17 mg/cm2: 100%
[4]; 0.17mg/cm2, 3 h
  pest or weed control at 0.17 mg/cm2, 0.17 mg/cm2: 100%
[4]; 0.17mg/cm2, 4 h
  pest or weed control at 0.17 mg/cm2, 0.17 mg/cm2: 100%
[4]; 0.17mg/cm2, 5 h
  pest or weed control at 0.17 mg/cm2, 0.17 mg/cm2: 100%
[4]; 0.17mg/cm2, 6 h
  pest or weed control at 0.17 mg/cm2, 0.17 mg/cm2: 97.1%
[4]; 0.17mg/cm2, 7 h
  pest or weed control at 0.17 mg/cm2, 0.17 mg/cm2: 96.9%
[4]; 0.17mg/cm2, 8 h
  pest or weed control at 0.17 mg/cm2, 0.17 mg/cm2: 100%
[4]; at the dose of 0.17mg/cm2
  Average PT >95% (% coefficient of variation): 480 (0) min
[4]; at the dose of 0.17mg/cm2, Kaplan–Meier estimate
  Estimated 100% PT (complete protection time, mean±SE): 380 ± 20 min
[4]; dose of 0.17 mg/cm^2, tests ended after 8 h
  Protection time (95% protection): 8 h
[5]; Aedes albopictus, topical, 0.081 µg/cm2, read-out: Protection efficacy PE%
  pest or weed control at 0.081 µg/cm2, 0.081 µg/cm2: 46.3%
[5]; Aedes albopictus, topical, 0.17 µg/cm2, read-out: Protection efficacy PE%
  pest or weed control at 0.17 µg/cm2, 0.17 µg/cm2: 58.9%
[5]; Aedes albopictus, topical, 0.33 µg/cm2, read-out: Protection efficacy PE%
  pest or weed control at 0.33 µg/cm2, 0.33 µg/cm2: 62.2%
[5]; Aedes albopictus, topical, 0.5 µg/cm2, read-out: Protection efficacy PE%
  pest or weed control at 0.5 µg/cm2, 0.5 µg/cm2: 87%
[5]; Aedes albopictus, topical, 0.83 µg/cm2, read-out: Protection efficacy PE%
  pest or weed control at 0.83 µg/cm2, 0.83 µg/cm2: 90.7%
[5]; Aedes albopictus, topical, 1.7 µg/cm2, read-out: Protection efficacy PE%
  pest or weed control at 1.7 µg/cm2, 1.7 µg/cm2: 100%
[5]; Aedes albopictus, topical, 8.3 µg/cm2, read-out: Protection efficacy PE%
  pest or weed control at 8.3 µg/cm2, 8.3 µg/cm2: 100%
[5]; Aedes albopictus, topical, 16.7 µg/cm2, read-out: Protection efficacy PE%
  pest or weed control at 16.7 µg/cm2, 16.7 µg/cm2: 100%
[5]; Aedes albopictus, topical, 83.3 µg/cm2, read-out: Protection efficacy PE%
  pest or weed control at 83.3 µg/cm2, 83.3 µg/cm2: 100%
[5]; Table S1
  100% PE: 1.7 µg/cm2
[5]; applied on skin of volunteers, 3 min exposure
  Protection efficacy (dose to obtain complete protection (100%) from bite attempts): 1.7 μg/cm^2
